Here are results for one compound from patent US8445511B2, “Quinoline or quinoxaline derivatives for treating neurodegenerative diseases” (Centre National de la Recherche Scientifique (SNRS), priority 2008, dated 2013).

“Also recorded” adds a separate entry of the source.

For assay [1], the system named is fetal dopaminergic neurons in culture. Kind of assay: Neuroprotection and differentiation of dopaminergic (TH+) neurons in primary culture of rat embryo mesencephalon (spontaneous degeneration model). It counts as cell-based. More on the design: key to Diff (qualitative assessment of neuron differentiation): + indicates that the neurons have a morphology similar to that of the control; ++ and +++ indicate the presence of neurons whose extensions are longer and more numerous than the control neurons; ++ and +++ indicate the presence of neurons whose extensions are longer and more numerous than the control neurons; − indicates that the neurons have neurites that are shorter and less numerous than the control neurons. Here is the method: Dissection consists in extracting the embryos from the uterus of a rat at fifteen days of gestation. The brain of each embryo is then dissected under a binocular magnifier in order to extract the ventral mesencephalon.
The mesencephalons are gathered in a flask containing 2 ml of L15 medium and then mechanically dissociated (30 times), and then 5 ml of L15 medium are added. The suspension is left to rest for 8 minutes. 5 ml of the supernatant are recovered in a new flask and the cells are dissociated again (30 times). 5 ml of L15 are again added and the suspension is left to rest for 8 minutes. 5 ml of supernatant are added to the preceding. The cells thus extracted are then centrifuged for 5 minutes at 1,000 rpm. The cell pellet is taken up in Neurobasal medium supplemented with 1% B27, 1% glutamine and 1% penicillin/streptomycin mixture. The cells are then inoculated at the appropriate dilution (0.6 embryo per well on a 24-well plate and 0.4 per well on a 48-well plate). The cultures are incubated at 37° C. in a humid atmosphere enriched with 5% CO2 in a 24- or 48-well plate.
After 24 hours, two-thirds of the medium of each well is replaced by new medium enriched with the compound of the invention to test at the appropriate dilution. The medium is replaced in the same way after 4 days of culture.
(§1) At 8 days of culture, the cells are fixed by a 4% formaldehyde solution and then washed three times with PBS. The cells then undergo several immunohistochemistry procedures: • anti-tyrosine hydroxylase (TH) visualized by a secondary antibody coupled to a fluorochrome that emits in the red spectrum (Cy3). • anti-MAP2 (MAP=microtubule-associated protein) (neuron marker) visualized by a secondary antibody coupled to a fluorochrome that emits in the green spectrum (alexa488). • DAPI (4′,6-diamidino-2-phenylindole), a nuclear marker that emits in the blue spectrum.
Neuroprotection is evaluated by counting TH positive neurons directly under the microscope or MAP2 positive on images, at 15 images per well, expressed as a percentage of the untreated control. The experiments include three wells per condition. Three independent experiments are carried out under these conditions. Total neurite length per cell calculated by the Neurite Outgrowth software by Explora Nova on 20 neurons photographed independently per well gives an indication of the state of maturation of the dopaminergic neurons.
The compounds of the invention were tested on a model of spontaneous degeneration of dopaminergic neurons in culture.
This model consists of culturing cells of the ventral mesencephalon of rat embryo. This part of the brain in culture contains dopaminergic neurons and other primarily GABAergic neurons. These cultures are also composed of glial cells, namely astrocytes, oligodendrocytes and microglia. This is a model of spontaneous degeneration of dopaminergic neurons which mimics certain aspects of Parkinson's disease.
The neuroprotective effect of the compounds of the invention was evaluated by counting dopaminergic neurons (TH^+) marked by tyrosine hydroxylase (TH) immunohistochemistry after 8 days of culture. Thus the compounds were evaluated at 1 nM, 10 nM, 100 nM and 1 μM and were compared with the activity of dibutyryl cyclic AMP (db-cAMP) used as the reference product.
In order to evaluate more quantitatively the activity of the compounds of the invention, neurite growth per cell was measured using the Neurite Outgrowth software developed by Explora Nova. A minimum of 60 neurons per condition were photographed and studied, and the results were then averaged and normalized by the number of neurons considered.

For the next assay, the system named is MAP2+ neurons. Kind of assay: Count of MAP2+ neurons in primary mesencephalic cultures (phenotypic specificity). Particulars: DIV12; 10 nM and 100 nM; FIG. 5. The format is cell-based, rat.
Description: as §1
Neuroprotection is evaluated by counting TH positive neurons directly under the microscope or MAP2 positive on images, at 15 images per well, expressed as a percentage of the untreated control. The experiments include three wells per condition. Three independent experiments are carried out under these conditions. Total neurite length per cell calculated by the Neurite Outgrowth software by Explora Nova on 20 neurons photographed independently per well gives an indication of the state of maturation of the dopaminergic neurons. […]
First, the neurons are cultured and maintained at DIV12. […] The neurons are then counted via image with X20 enlargement at 15 images per well.

Consider `C#CC(O)CCCCCCCCCCCCC#Cc1ccc2ccccc2n1` (stereo not drawn) [Compound N3, 17-(quinolin-2-yl)heptadec-1,16-diyn-3-ol], for which, in assay [1] (1 nM, 10 nM, 100 nM and 1 μM, FIG. 2), the “dose-response of effect on survival of dopaminergic neurons” value was “dose-dependent”. For the same compound, the “Diff (qualitative assessment of neuron differentiation)” value in assay [1] (100 nM, dopaminergic neurons in culture) was “+++”. Further, the viability at 0.1 µM in assay [1] (Rattus norvegicus, Neuron, 192 h, 100 nM, survival of TH+ dopaminergic neurons after 8 days of culture, read-out: % Neurons relative to the control ±SEM) was found to be 154 ± 4.1%. Besides, the “neuroprotective activity (percentage of survival of dopaminergic neurons), in words, versus reference product db-cAMP” value in assay [1] (dopaminergic neurons, 8 days of culture) is listed as “equal to or greater than that of the reference product; also recorded: the most active compound”. Besides, the “concentration of maximum effect on survival of dopaminergic neurons” value in assay [1] (dose-response curve, FIG. 2) is on record as 100 nM. Moreover, in the assay on MAP2+ neurons, the “survival of total neurons of the culture (MAP2+ neurons) versus untreated control” value was “increased”.
